We go through 97 compounds from a flash point compilation (Sun et al. 2020).

The structures appear in SMILES notation.

On to `C[C@H]1CCCC[C@H]1O` (relative stereo) [cis-2-methylcyclohexanol], for which the flash point was found to be 59 °C.

Consider `C[C@H]1CCC[C@H](C)C1` (relative stereo) [trans-1,3-dimethylcyclohexane], for which the flash point turned out to be 8 °C.

Compound `C[C@@H]1CC(=O)[C@@H](C)C1` (relative stereo) [trans-2,4-dimethylcyclopentanone] registered a flash point of 42 °C.

Compound `C[C@@H]1CC(=O)C[C@H]1C` (relative stereo) [trans-3,4-dimethylcyclopentanone] gave a flash point of 41 °C.

As for `C=C(Cl)Cl` [1,1-dichloroethene], the flash point was -25 °C.

Compound `CCC(Cl)Cl` [1,1-dichloropropane] displayed a flash point of 7 °C.

Take `CC1(C)CCCC1` [1,1-dimethylcyclopentane]: the flash point was -16 °C.

In the case of `c1ccc2c(c1)CCCC2` [1,2,3,4-tetrahydronaphthalene], the flash point was 71 °C.

With `Cc1cc(C)c(C)c(C)c1` [1,2,3,5-tetramethylbenzene], the flash point turned out to be 63 °C.

Consider `COc1ccccc1OC` [1,2-dimethoxybenzene], for which the flash point was 87 °C.

For the compound `CCCc1cccc(C)c1C` [1,2-dimethyl-3-propylbenzene], the flash point amounted to 72 °C.

As for `CC(O)CO` (configuration not stated) [1,2-propanediol], the flash point was 99 °C.

Compound `CC(O)CCO` (configuration not stated) [1,3-butanediol] had a flash point of 109 °C.

In the case of `C1=CCCC=C1` [1,3-cyclohexadiene], the flash point was -16 °C.

Consider `CC(Cl)CCCl` (configuration not stated) [1,3-dichlorobutane], for which the flash point came to 31 °C.

Take `C1COCO1` [1,3-dioxolane]: the flash point was -6 °C.

On to `OCCCCO` [1,4-butanediol], for which the flash point was determined as 121 °C.

`N#CCCCCC#N` [1,4-dicyanobutane]: the flash point amounted to 159 °C.

Consider `CC(C)c1ccc(C(C)C)cc1` [1,4-diisopropylbenzene], for which the flash point amounted to 76 °C.

Compound `C=CCCCC=C` [1,6-heptadiene] yielded a flash point of -10 °C.

The compound `C#CCCCC#C` [1,6-heptadiyne] gave a flash point of 9 °C.

In the case of `C=CCCCCC=C` [1,7-octadiene], the flash point came out at 5 °C.

Consider `C#CCCCCC#C` [1,7-octadiyne], for which the flash point was 23 °C.

`CCc1ccccc1Br` [1-bromo-2-ethylbenzene] registered a flash point of 79 °C.

`CCCCBr` [1-bromobutane] displayed a flash point of 10 °C.

For `CCCCCCBr` [1-bromohexane], the flash point came to 47 °C.

`CCCBr` [1-bromopropane] gave a flash point of -4 °C.

`CCCCS` [1-butanethiol] gave a flash point of 2 °C.

For the compound `CC(C)CCl` [1-chloro-2-methylpropane], the flash point is -17 °C.

As for `CCc1ccc(Cl)cc1` [1-chloro-4-ethylbenzene], the flash point was 62 °C.

`CCCCCCCCl` [1-chloroheptane] displayed a flash point of 41 °C.

Take `CCCCCCCl` [1-chlorohexane]: the flash point stood at 26 °C.

For `CCCCCCCCCCl` [1-chlorononane], the flash point was 74 °C.

With `CCCCCCCCCCN` [1-decanamine], the flash point came to 85 °C.

The compound `CCCCCCCCCCO` [1-decanol] showed a flash point of 108 °C.

The compound `CCCCCCCCCCCCO` [1-dodecanol] yielded a flash point of 127 °C.

Turning to `C#CCCCCCCCCCC` [1-dodecyne], the flash point was 79 °C.

For the compound `CCc1cccc(C)c1C` [1-ethyl-2,3-dimethylbenzene], the flash point came out at 65 °C.

Consider `CCc1ccc(C)cc1C` [1-ethyl-2,4-dimethylbenzene], for which the flash point was determined as 57 °C.

On to `CCc1cccc(C(C)C)c1` [1-ethyl-3-isopropylbenzene], for which the flash point turned out to be 63 °C.

In turn, `CCc1ccc(F)cc1` [1-ethyl-4-fluorobenzene] registered a flash point of 30 °C.

Compound `CCN1CCCCC1` [1-ethylpiperidine] returned a flash point of 18 °C.

In turn, `Cc1cc(C)cc(F)c1` [1-fluoro-3,5-dimethylbenzene] registered a flash point of 35 °C.

`CCCCCCCS` [1-heptanethiol] gave a flash point of 46 °C.

For `CCCCCCCO` [1-heptanol], the flash point was determined as 70 °C.

In turn, `C=CCCCCCCCCCCCCCC` [1-hexadecene] had a flash point of 129 °C.

`CCCCCCS` [1-hexanethiol] showed a flash point of 30 °C.

Compound `Cc1cccc(I)c1` [1-iodo-3-methylbenzene] displayed a flash point of 83 °C.

As for `CCCCCCCI` [1-iodoheptane], the flash point stood at 79 °C.

For `CCCCCCI` [1-iodohexane], the flash point stood at 61 °C.

Take `CCCCCCCCI` [1-iodooctane]: the flash point came out at 95 °C.

Regarding `Cn1cccc1` [1-methylpyrrole], the flash point came to 15 °C.

`CCCC[N+](=O)[O-]` [1-nitrobutane] came in with a flash point of 47 °C.

The compound `CCCCCC[N+](=O)[O-]` [1-nitrohexane] showed a flash point of 72 °C.

Turning to `CCCCC[N+](=O)[O-]` [1-nitropentane], the flash point was 61 °C.

In turn, `CCCCCCCCCS` [1-nonanethiol] returned a flash point of 79 °C.

Take `C=CCCCCCCC` [1-nonene]: the flash point turned out to be 25 °C.

The compound `C#CCCCCCCC` [1-nonyne] showed a flash point of 33 °C.

Consider `C=CCCCCCCCCCCCCCCCC` [1-octadecene], for which the flash point worked out at 154 °C.

The compound `CCCCCCCCS` [1-octanethiol] came in with a flash point of 68 °C.

On to `CCC(=O)Cc1ccccc1` [1-phenyl-2-butanone], for which the flash point came out at 91 °C.

Take `CCC(C)Cc1ccccc1` (configuration not stated) [1-phenyl-2-methylbutane]: the flash point was 64 °C.

On to `CC(=O)OC(C)c1ccccc1` (configuration not stated) [1-phenylethylacetate], for which the flash point turned out to be 91 °C.

As to `CCC(=O)OC(C)c1ccccc1` (configuration not stated) [1-phenylethylpropionate], the flash point is 106 °C.

`CCCS` [1-propanethiol] returned a flash point of -14 °C.

`CCCO` [1-propanol] registered a flash point of 23 °C.

Compound `CCCCCCCCCCCS` [1-undecanethiol] registered a flash point of 109 °C.

Regarding `C=CCCCCCCCCC` [1-undecene], the flash point is 54 °C.

Take `CC(C)(C)C(C)(C)C` [2,2,3,3-tetramethylbutane]: the flash point was -0 °C.

Compound `CCCC(C)(C)C(C)(C)C` [2,2,3,3-tetramethylhexane] gave a flash point of 31 °C.

For `CC(C)C(C)C(C)(C)C` (configuration not stated) [2,2,3,4-tetramethylpentane], the flash point came to 11 °C.

The source holds these as a separate data set.
Take `c1ccsc1` [thiophene]: the flash point is -1.00 °C.

`ClC[Si](Cl)(Cl)Cl` [trichloro(chloromethyl)silane] showed a flash point of 69.00 °C.

In turn, `C=C[Si](Cl)(Cl)Cl` [trichloro(ethenyl)silane] came in with a flash point of 21.00 °C.

Compound `CC[Si](Cl)(Cl)Cl` [trichloro(ethyl)silane] registered a flash point of 22.00 °C.

On to `C[Si](Cl)(Cl)Cl` [trichloro(methyl)silane], for which the flash point is -9.00 °C.

`Cl[Si](Cl)(Cl)c1ccccc1` [trichloro(phenyl)silane] showed a flash point of 91.00 °C.

Compound `CCC[Si](Cl)(Cl)Cl` [trichloro(propyl)silane] had a flash point of 37.00 °C.

As for `C=CC(=O)OCCCCCCCCCCCCC` [tridecyl prop-2-enoate], the flash point stood at 132.00 °C.

Regarding `CCOC(=O)CC(O)(CC(=O)OCC)C(=O)OCC` [triethyl 2-hydroxypropane-1,2,3-tricarboxylate], the flash point came to 155.00 °C.

The compound `CCOP(=O)(OCC)OCC` [triethyl phosphate] showed a flash point of 116.00 °C.

For the compound `CCOP(OCC)OCC` [triethyl phosphite], the flash point amounted to 46.00 °C.

In turn, `FC(F)(F)c1ccccc1` [trifluoromethylbenzene] returned a flash point of 12.00 °C.

On to `C[Si](C)(C)O[Si](C)(O[Si](C)(C)C)O[Si](C)(C)C` [trimethyl-[methyl-bis(trimethylsilyloxy)silyl]oxysilane], for which the flash point is 86.00 °C.

`c1ccc(OP(Oc2ccccc2)Oc2ccccc2)cc1` [triphenyl phosphite]: the flash point was found to be 218.00 °C.

As for `O.c1cc[c]([Sn]([c]2ccccc2)[c]2ccccc2)cc1` [triphenyltin;hydrate], the flash point was 400.00 °C.

Compound `O=P(OC(CCl)CCl)(OC(CCl)CCl)OC(CCl)CCl` [tris(1,3-dichloropropan-2-yl) phosphate] returned a flash point of 252.00 °C.

With `CCCCOCCOP(=O)(OCCOCCCC)OCCOCCCC` [tris(2-butoxyethyl) phosphate], the flash point is 224.00 °C.

`CCCCC(CC)COP(=O)(OCC(CC)CCCC)OCC(CC)CCCC` (configuration not stated) [tris(2-ethylhexyl) phosphate] came in with a flash point of 152.00 °C.

Consider `Cc1ccccc1OP(=O)(Oc1ccccc1C)Oc1ccccc1C` [tris(2-methylphenyl) phosphate], for which the flash point is 225.00 °C.

For `Cc1cccc(OP(=O)(Oc2cccc(C)c2)Oc2cccc(C)c2)c1` [tris(3-methylphenyl) phosphate], the flash point was 210.00 °C.

In turn, `CCCCSP(SCCCC)SCCCC` [tris(butylsulfanyl)phosphane] gave a flash point of 146.00 °C.

Take `C=CCCCCCCCCC` [undec-1-ene]: the flash point came out at 71.00 °C.

As to `CCCCCCCCCC(C)=O` [undecan-2-one], the flash point is 89.00 °C.

In turn, `CCCCCCCCCCCS` [undecane-1-thiol] showed a flash point of 109.00 °C.

Turning to `CCCCCCCCCCCc1ccccc1` [undecylbenzene], the flash point came to 141.00 °C.

`CN(C)C(=S)[S-].CN(C)C(=S)[S-].[Zn+2]` [zinc;N,N-dimethylcarbamodithioate] yielded a flash point of 93.00 °C.
